The values below come from ChEMBL document CHEMBL1138374, “Arylsulfonamides as a new class of cannabinoid CB1 receptor ligands: identification of a lead and initial SAR studies” (Bioorg Med Chem Lett, 2007).

In data set [1] the target is T1, Cannabinoid receptor 1 (Homo sapiens, UniProt P21554). Description: Binding affinity to human recombinant CB1 receptor.
Data set [2] has as its target T1, Cannabinoid receptor 1. Description: Agonist activity at human recombinant CB1 receptor expressed in CHO cells by [35S]GTP-gamma-S binding assay. The data set is classed as functional, cell-based.
Data set [3] concerns Mus musculus. Description: Reduction of nociception in NMRI mouse during late phase (10 to 30 mins) at 90 mg/kg, ip by formalin test. The note with it: route intraperitoneal. The format is functional. Set-up: scale not given: the % may be the effect or the level left.
Another data set concerns the target Cannabinoid receptor 2 (Homo sapiens, UniProt P34972). The data set is described as follows: Binding affinity to CB2 receptor.
The subject of data set [4] is Mus musculus. The data set is described as follows: Reduction of nociception in NMRI mouse during late phase (10 to 30 mins) at 10 mg/kg, ip by formalin test. The following applies: route intraperitoneal. Details: scale not given: the % may be the effect or the level left. The format is functional.
Data set [5] has as its system Mus musculus. The data set is described as follows: Reduction of nociception in NMRI mouse during early phase (0 to 5 mins) at 90 mg/kg, ip by formalin test. The data set is classed as functional. Set-up: scale not given: the % may be the effect or the level left. The note with it: route intraperitoneal.
In data set [6] the test system is Mus musculus. The data set is described as follows: Reduction of nociception in NMRI mouse during early phase (0 to 5 mins) at 10 mg/kg, ip by formalin test. The format is functional. Set-up: scale not given: the % may be the effect or the level left. The note with it: route intraperitoneal.
Data set [7] has as its system Mus musculus. Description: Reduction of nociception in NMRI mouse during early phase (0 to 5 mins) at 80 mg/kg, ip by formalin test. The format is functional. Details: scale not given: the % may be the effect or the level left. The following applies: route intraperitoneal.
In data set [8] the test system is Mus musculus. Description: Reduction of nociception in NMRI mouse during early phase (0 to 5 mins) at 30 mg/kg, ip by formalin test. Set-up: scale not given: the % may be the effect or the level left. The following applies: route intraperitoneal. The data set is classed as functional.
In data set [9] the target is Cannabinoid receptor 1 (Mus musculus) (UniProt P47746). The following applies: Vas deferens.
Chain of Cannabinoid receptor 1 (Mus musculus) (P47746 whole entry): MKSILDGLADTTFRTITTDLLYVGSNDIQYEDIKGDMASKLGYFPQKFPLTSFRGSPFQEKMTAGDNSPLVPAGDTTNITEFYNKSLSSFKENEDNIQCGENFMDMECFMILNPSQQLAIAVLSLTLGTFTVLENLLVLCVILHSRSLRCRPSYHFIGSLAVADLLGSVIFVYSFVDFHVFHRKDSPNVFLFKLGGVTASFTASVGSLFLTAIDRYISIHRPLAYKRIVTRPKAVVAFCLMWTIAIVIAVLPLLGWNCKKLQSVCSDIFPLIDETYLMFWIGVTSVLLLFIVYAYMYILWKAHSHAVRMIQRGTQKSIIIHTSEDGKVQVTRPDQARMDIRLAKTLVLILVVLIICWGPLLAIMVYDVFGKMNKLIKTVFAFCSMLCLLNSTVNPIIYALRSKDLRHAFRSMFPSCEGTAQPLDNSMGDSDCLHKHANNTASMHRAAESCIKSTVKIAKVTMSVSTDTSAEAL
Description: Agonist activity at CB1 receptor assessed as inhibition of electrically-induced twitch contraction amplitude in mouse vas deferens
Data set [10] has the same target. The note with it: Vas deferens; 0.1 uM.
Description: Agonist activity at CB1 receptor assessed as inhibition of electrically-induced twitch contraction amplitude in mouse vas deferens at 0.1 uM relative to WIN-55212-2
The test system of data set [11] is Mus musculus. The data set is described as follows: Reduction of nociception in NMRI mouse during late phase (10 to 30 mins) at 30 mg/kg, ip by formalin test. Set-up: scale not given: the % may be the effect or the level left. The note with it: route intraperitoneal. The data set is classed as functional.
Data set [12] deals with Mus musculus. Description: Induction of hypokinesia with reduced postural tone NMRI mouse at 180 mg/kg, ip. The data set is classed as organism-based. Details: dose 180 mg/kg, route intraperitoneal. The following applies: in vivo.
Data set [13] has as its system Mus musculus. Description: Reduction of nociception in NMRI mouse during late phase (10 to 30 mins) at 180 mg/kg, ip by formalin test. The note with it: route intraperitoneal. Set-up: scale not given: the % may be the effect or the level left. The data set is classed as functional.
In data set [14] the test system is Mus musculus. Description: Reduction of nociception in ip dosed NMRI mouse during late phase (10 to 30 mins). The format is functional.
Data set [15] relates to Mus musculus. The data set is described as follows: Induction of hypotonia NMRI mouse at 0.3 mg/kg, ip. Set-up: dose 0.3 mg/kg, route intraperitoneal. The note with it: in vivo. The data set is classed as organism-based.
The subject of data set [16] is Mus musculus. Description: Induction of hypokinesia NMRI mouse at 0.3 mg/kg, ip. Set-up: dose 0.3 mg/kg, route intraperitoneal. The note with it: in vivo. The format is organism-based.

T1 sequence (P21554 whole entry): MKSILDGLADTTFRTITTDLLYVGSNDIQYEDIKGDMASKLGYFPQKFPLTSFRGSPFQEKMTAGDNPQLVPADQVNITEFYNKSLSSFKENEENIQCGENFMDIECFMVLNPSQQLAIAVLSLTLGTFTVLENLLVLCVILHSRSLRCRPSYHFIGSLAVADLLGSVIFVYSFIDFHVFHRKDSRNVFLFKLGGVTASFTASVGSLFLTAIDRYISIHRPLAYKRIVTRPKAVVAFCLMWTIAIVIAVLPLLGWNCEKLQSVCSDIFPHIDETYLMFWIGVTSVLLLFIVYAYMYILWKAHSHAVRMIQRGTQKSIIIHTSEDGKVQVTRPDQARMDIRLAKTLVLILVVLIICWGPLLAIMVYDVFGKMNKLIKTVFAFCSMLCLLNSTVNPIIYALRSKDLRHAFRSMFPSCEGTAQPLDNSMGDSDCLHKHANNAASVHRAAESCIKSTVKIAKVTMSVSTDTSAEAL
Chain of Cannabinoid receptor 2 (P34972 whole entry): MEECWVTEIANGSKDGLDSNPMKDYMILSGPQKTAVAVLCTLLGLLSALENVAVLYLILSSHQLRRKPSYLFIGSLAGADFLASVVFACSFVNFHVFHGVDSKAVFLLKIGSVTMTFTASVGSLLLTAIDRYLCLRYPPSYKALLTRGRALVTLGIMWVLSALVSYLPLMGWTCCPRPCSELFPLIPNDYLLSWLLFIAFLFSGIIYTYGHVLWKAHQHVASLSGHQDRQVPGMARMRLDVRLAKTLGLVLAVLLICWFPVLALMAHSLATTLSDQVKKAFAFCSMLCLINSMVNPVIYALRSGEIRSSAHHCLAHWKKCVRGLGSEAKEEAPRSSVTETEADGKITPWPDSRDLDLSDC
Description for Homo sapiens: Selectivity for CB2 receptor over human recombinant CB1 receptor

With `Cc1ccc(C(=O)Nc2ccccc2)cc1S(=O)(=O)N1CCCCC1`, at Cannabinoid receptor 1 [1], the half-maximal inhibitory concentration (IC50) was 3160 nM. Also, the EC50 at Cannabinoid receptor 1 [2] was more than 10000 nM.
Taken in the same sequence, the figures for `Cc1ccc(C(=O)O)cc1S(=O)(=O)N1CCCCC1` were more than 10000 nM and more than 10000 nM.
For `Cc1ccc(C(=O)Nc2cccc(F)c2)cc1S(=O)(=O)N1CCCCC1`, the 50% inhibitory concentration (IC50) at Cannabinoid receptor 1 [1] is 1260 nM. Also, the EC50 at Cannabinoid receptor 1 [2] is more than 10000 nM.
Regarding `Nc1cccc(NC(=O)c2cccc(S(=O)(=O)N3CCCCC3)c2)c1`, on Cannabinoid receptor 1 [1], the IC50 is 5010 nM. In addition, at Cannabinoid receptor 1 [2], the EC50 is more than 10000 nM.
Consider `Cc1ccc(C(=O)Oc2ccccc2Br)cc1S(=O)(=O)N1CCOCC1`, for which, at Cannabinoid receptor 1 [1], the IC50 is 31.6 nM. Further, the EC50 at Cannabinoid receptor 1 [2] is 398 nM.
Taken in the same sequence, the figures for `COc1ccc(C(=O)Oc2cccc3cccnc23)cc1S(=O)(=O)N1CCOCC1` were 39.8 nM and 398 nM.
Taken in the same sequence, the figures for `O=C(Nc1ccc(Cl)c(S(=O)(=O)N2CCOCC2)c1)c1ccccc1Cl` were 1580 nM and more than 10000 nM.
For `O=C(Nc1ccc(Cl)c(S(=O)(=O)N2CCOCC2)c1)c1cccc2ccccc12` the same measures were 398 nM and 794 nM.
`Cc1ccc(NC(=O)c2ccc(C)c(S(=O)(=O)N3CCCCC3)c2)nc1`: on Cannabinoid receptor 1 [1], the concentration for half-maximal inhibition (IC50) is 3160 nM. Further, the EC50 at Cannabinoid receptor 1 [2] is more than 10000 nM.
For `O=C(Oc1cccc2cccnc12)c1cccc(S(=O)(=O)N2CCCC2)c1` the same measures were 158 nM and 631 nM.
`Cc1ccc(C(=O)Nc2ccccc2)cc1S(=O)(=O)N1CCCC1`: the IC50 at Cannabinoid receptor 1 [1] was 6310 nM. In addition, the EC50 on Cannabinoid receptor 1 [2] is more than 10000 nM.
As to `Cc1ccc(C(=O)Oc2cccc3cccnc23)cc1S(=O)(=O)N1CCCCC1`, the IC50 on Cannabinoid receptor 1 [1] is 0.794 nM. Besides, the Activity in the data set on Mus musculus [3] is given as -71%; in the data set on Mus musculus [4], -15%; in the data set on Mus musculus [5], -53%; in the data set with Mus musculus [6], -1%; with Mus musculus [7] it was -54%; in the data set with Mus musculus [8] it was -1%. In addition, the Activity is on record as -50% in the data set with Mus musculus [11], “Toxic” with Mus musculus [12] and -59% in the data set with Mus musculus [13]. Besides, the affinity at Cannabinoid receptor 2, expressed as Ki, was 25.1 nM. Further, on Cannabinoid receptor 1 [2], the concentration giving a half-maximal response (EC50) was 10 nM. Besides, the pD2 in data set [9] was 6.42. In data set [10], this compound returned an inhibition of 87.3%. Further, in the data set listed under Homo sapiens, the logSI was 1.
For the compound `O=C(Nc1ccc(Cl)c(S(=O)(=O)N2CCOCC2)c1)c1ccccc1`, the 50% inhibitory concentration (IC50) at Cannabinoid receptor 1 [1] was 3980 nM. Besides, on Cannabinoid receptor 1 [2], the EC50 is 631 nM.
Taken in the same sequence, the figures for `O=C(Nc1ccccc1O)c1ccc(Cl)c(S(=O)(=O)N2CCCCCC2)c1` were 200 nM and 1260 nM.
As for `Cc1ccc(C(=O)Nc2cccc3cnccc23)cc1S(=O)(=O)N1CCCCC1`, on Cannabinoid receptor 1 [1], the 50% inhibitory concentration (IC50) was 1260 nM. In addition, the EC50 at Cannabinoid receptor 1 [2] was 6310 nM.
Taken in the same sequence, the figures for `Cc1ccc(NC(=O)c2ccc(C)c(S(=O)(=O)N3CCCCC3)c2)cc1` were 7940 nM and more than 10000 nM.
Taken in the same sequence, the figures for `COc1ccccc1OC(=O)c1ccc(C)c(S(=O)(=O)N2CCOCC2)c1` were 3160 nM and 63.1 nM.
For `COc1ccccc1NC(=O)c1cccc(S(=O)(=O)N2CCCCC2)c1`, the IC50 at Cannabinoid receptor 1 [1] was more than 10000 nM.
`Cc1ccc(NC(=O)c2cccc(C#N)c2)cc1S(=O)(=O)N1CCOCC1`: on Cannabinoid receptor 1 [1], the 50% inhibitory concentration (IC50) was 1580 nM. The 50% effective concentration (EC50) at Cannabinoid receptor 1 [2] is 5010 nM.
`Cc1c(C(=O)c2cccc3ccccc23)c2cccc3c2n1[C@H](CN1CCOCC1)CO3` [WIN-552122] yielded an ED50 with Mus musculus [14] of 0.21 mg/kg. Also, the Activity entry with Mus musculus [15] and in the data set with Mus musculus [16] was “Toxic” each time.
Consider `O=C(Oc1cccc2cccnc12)c1cccc(S(=O)(=O)N2CCCCCC2)c1`, for which, at Cannabinoid receptor 1 [1], the concentration for half-maximal inhibition (IC50) was 50.1 nM. In addition, on Cannabinoid receptor 1 [2], the EC50 was 200 nM.
For `Cc1ccc(C(=O)Oc2cccc3cccnc23)cc1S(=O)(=O)N1CCOCC1` the same measures were 1.26 nM and 12.6 nM.
For `O=C(Oc1cccc2cccnc12)c1cccc(S(=O)(=O)N2CCCCC2)c1` the same measures were 15.8 nM and 50.1 nM.
For `Cc1ccc(NC(=O)c2ccccc2Oc2ccccc2)cc1S(=O)(=O)N1CCOCC1` the same measures were 2000 nM and more than 10000 nM.
